Literature values in patent publication US20040037773A1, “Method for detecting abnormal tissue using enhanced radiopharmaceutical uptake” (Block Medical Center, priority 2002, published 2004).

Tested on: mitochondria
Conditions: energy dependent manner

Share of sestamibi taken up by mitochondria: over 90%
SMILES: [99Tc+].[C-]#[N+]CC(C)(C)OC.[C-]#[N+]CC(C)(C)OC.[C-]#[N+]CC(C)(C)OC.[C-]#[N+]CC(C)(C)OC.[C-]#[N+]CC(C)(C)OC.[C-]#[N+]CC(C)(C)OC [sestamibi, Technetium-99m hexakis 2-methoxyisobutylisonitrile]
